Test results from paper PMC6680932, “Structure–Antioxidant–Antiproliferative Activity Relationships of Natural C7 and C7–C8 Hydroxylated Flavones and Flavanones” (Antioxidants, 2019).
Like-named read-outs stand apart in the source and are kept apart here.

Legend:
[1] = ABTS radical cation decolorization assay; settings: 6 min incubation, 734 nm; mean ± SD
Experimental: (§1) The antioxidant capacity of flavonoids was measured in three separate tests: ABTS, DPPH, and ferric ion reducing antioxidant power (FRAP) assays (ABTS, DPPH, and FRAP reagents from Sigma-Aldrich). All tested compounds were dissolved in DMSO. All determinations were performed in triplicate. Standard curves were prepared for all assays using different concentrations of Trolox (6-hydroxy-2,5,7,8-tetramethylchroman-2-carboxylic acid) (Sigma-Aldrich). Trolox is a water-soluble analogue of vitamin E with high antioxidant activity, commonly used as a control and a reference in studies of antioxidant activity. The results were expressed as the equivalent of μmol Trolox per μmol of the test compound. The absorbance was measured using a UV-2401 PC spectrophotometer (Shimadzu, Kyoto, Japan). Concentrations of the tested samples were in the range from 50 µg/mL to 10 mg/mL.
The radical cation scavenging capacity of the tested compounds was examined against ABTS^+ (2,2’-azino-bis(3-ethylbenzo-thiazoline-6-sulfonic acid) according to the procedure described by Re et al. with some modifications. The test sample (30 μL) of known concentration was mixed in a polystyrene cuvette with 3 mL of ABTS solution with a measured absorption of 0.700 at a wavelength of λ = 734 nm. After 6 min of incubation, the absorption of samples was recorded. The ABTS reagent was freshly prepared before each experiment.

[2] = DPPH free radical scavenging activity assay; settings: 10 min, 517 nm; mean ± SD
Experimental: as §1
The DPPH (2,2-diphenyl-1-picrylhydrazyl) radical scavenging activity of samples was determined according to the method described by Yen and Chen with some modifications. Samples (0.1 mL) of known concentration were mixed in polystyrene cuvettes with 2 mL of 0.04 mM DPPH in ethanol and 0.4 mL of ethanol. The absorbance was measured after 10 min at λ = 517 nm. The DPPH reagent was freshly prepared before each experiment.

[3] = FRAP (ferric ion reducing antioxidant power) assay; settings: 10 min, 593 nm; mean ± SD
Experimental: as §1
The FRAP method is based on measuring the ability of antioxidants to reduce ferric 2,4,6-tris(2-pyridyl)-1,3,5-triazine [Fe(III)-TPTZ] in the blue colored ferrous form, which absorbs light at λ = 593 nm. The Fe(III)-TPTZ reagent was prepared as a mixture of acetate buffer (pH 3.6), 10 mM TPTZ in 40 mM HCl, and 20 mM FeCl3 in the ratio of 10:1:1 (v/v/v). The FRAP reagent was freshly prepared before each experiment. The samples (0.1 mL) were mixed in polystyrene cuvettes with 3 mL of ferric complex and 0.9 mL of distilled water. The absorbance was measured after 10 min at λ = 593 nm.

[4] = system: MV-4-11 (biphenotypic B myelomonocytic leukemia); experiment: Antiproliferative activity in vitro, MTT assay; format: cell-based, human; settings: Homo sapiens, MV4-11, 72 h exposure, read-out: IC50 ± SD MV-4-11
[5] = system: HLMEC (lung microvascular endothelial cells); experiment: Antiproliferative activity in vitro, SRB assay; format: cell-based, human; settings: Homo sapiens, Endothelial cell; 72 h exposure, SRB; normal cell line; read-out: IC50 ± SD HLMEC
Experimental: (§2) The antiproliferative studies were performed in vitro using human cancer cell lines—MV-4-11 (biphenotypic B myelomonocytic leukemia), MCF7 (breast carcinoma), LoVo (colon cancer), LoVo/DX (colon cancer doxorubicin-resistant), and DU 145 (prostate cancer)—and normal human cell lines—MCF 10A (breast cells) and HLMEC (lung microvascular endothelial cells). The cell lines MV-4-11, LoVo, DU 145, and MCF 10A were obtained from the American Type Culture Collection (Rockville, Maryland, USA), MCF7 from the European Collection of Authenticated Cell Cultures (ECACC, Salisbury, UK), LoVo/DX courtesy of Professor E. Borowski (Technical University of Gdansk, Poland), and HLMECs (which had been already immortalized by transfection with pSV3-neoplasmid containing large T-antigen gene) were the kind gift of Professor Claudine Kieda (Center for Molecular Biophysics, Orleans, France). The cell lines are being maintained in the Hirszfeld Institute of Immunology and Experimental Therapy, Polish Academy of Sciences (HIIET, PAS), Wroclaw, Poland. All cell lines were grown at 37 °C with 5% CO2 humidified atmosphere. The MV-4-11 cells were cultured in RPMI 1640 medium with GlutaMAX (Gibco, Scotland, UK), supplemented with 1 mM sodium pyruvate and 10% fetal bovine serum (both from Sigma-Aldrich, Poznan, Poland). The MCF7 cells were cultured in Eagle medium (HIIET, PAS, Wroclaw, Poland) supplemented with 2 mM L-glutamine, 10% fetal bovine serum, 1% nonessential amino acid solution, and 0.8 mg/L of insulin (all from Sigma-Aldrich, Poznan, Poland). The LoVo and LoVo/DX cells were cultured in a 1:1 (v/v) mixture of RPMI 1640 and Opti-MEM (both HIIET, PAS, Wroclaw, Poland), supplemented with 1 mM sodium pyruvate, 2 mM L-glutamine, and 5% fetal bovine serum (all from Sigma-Aldrich, Poznan, Poland). For LoVo/DX cells, additionally 10 µg/100 mL of doxorubicin (Accord Healthcare) was added to the medium. DU 145 cells were cultured in Eagle medium (HIIET, PAS, Wroclaw, Poland) supplemented with 1 mM sodium pyruvate, 4 mM L-glutamine, and 10% fetal bovine serum (all from Sigma-Aldrich, Poznan, Poland). The MCF 10A cells were cultured in the F-12 nutrient mixture (Gibco, Scotland, UK), supplemented with 5% horse serum (Gibco, Scotland, UK), 0.05 μg/mL of cholera toxin (Vibrio cholerae), 0.5 μg/mL of hydrocortisone, 10 μg/mL of insulin, and 20 ng/mL of human epidermal growth factor (all from Sigma-Aldrich, Poznan, Poland). The HLMEC cells were cultured in the RPMI 1640 medium (HIIET, PAS, Wroclaw, Poland) with the addition of 2 mM L-glutamine (Sigma-Aldrich, Poznan, Poland) and 10% fetal bovine serum (GE Healthcare). All culture media were supplemented with 100 units/mL penicillin (Polfa Tarchomin S.A., Warsaw, Poland) and 100 µg/mL streptomycin (Sigma-Aldrich, Poznan, Poland). Twenty-four hours before addition of the tested agents, the cells were plated in 96-well plates (Sarstedt, Germany) at a density of 1 × 10^4 (1 × 10^3 for HLMEC and 0.75 × 10^4 for MCF7) cells per well in 100 μL of culture medium.
(§3) Tested compounds were dissolved in DMSO and then diluted in a 1:1 (v/v) mixture of RPMI 1640 (HIIET, PAS, Wroclaw, Poland) and Opti-MEM (Gibco, Scotland, UK) medium supplemented with 2 mM L-glutamine (Sigma-Aldrich, Poznan, Poland), 5% fetal bovine serum (GE Healthcare), 100 units/mL penicillin (Polfa Tarchomin S.A., Warsaw, Poland), and 100 µg/mL streptomycin (Sigma-Aldrich, Poznan, Poland). The antiproliferative effects of the flavonoids were examined after 72 h of exposure of the cultured cells to varying concentrations of the tested agents (from 0.1 to 100 μg/mL) using the MTT (for MV-4-11 cells) or SRB assay described below. Cisplatin (chemotherapy drug used to treat a number of cancers) was used as a positive control. The results are presented as an inhibitory concentration 50 (IC50), which is the concentration of the tested agent that inhibits proliferation of the cell population by 50%. IC50 values for each experiment were calculated separately. […]

LoVo (colon cancer) = experiment: Antiproliferative activity in vitro, SRB assay; format: cell-based, human; settings: 72 h exposure, SRB, read-out: IC50 ± SD LoVo
Experimental: as §2, §3

MCF 10A (breast cells) = experiment: Antiproliferative activity in vitro, SRB assay; format: cell-based, human; settings: Homo sapiens, MCF-10A; 72 h exposure, SRB; normal cell line; read-out: IC50 ± SD MCF 10A
Experimental: as §2, §3

MCF7 (breast carcinoma) = experiment: Antiproliferative activity in vitro, SRB assay; format: cell-based, human; settings: Homo sapiens, MCF7; 72 h exposure, SRB; read-out: IC50 ± SD MCF7
Experimental: as §2, §3

[6] = system: LoVo/DX (colon cancer doxorubicin-resistant); experiment: Antiproliferative activity in vitro, SRB assay; format: cell-based, human; settings: Homo sapiens, LoVo/DX, 72 h exposure, read-out: IC50 ± SD LoVo/DX
DU 145 (prostate cancer) = experiment: Antiproliferative activity in vitro, SRB assay; format: cell-based, human; settings: Homo sapiens, DU-145; 72 h exposure, SRB; read-out: IC50 ± SD DU 145
[7] = Stability of flavonoids in DMSO (control), HPLC; format: physicochemical; settings: 3 h of incubation
Experimental: (§4) Flavonoids were dissolved (as described in Section 2.4) to the concentration of 100 µg/mL. The solutions corresponding to the solutions before the administration to the cell cultures were incubated in 96-well plates for 3 h and transferred to microtubes containing 400 µL of cold methanol (−20 °C) and kept at −20 °C for 1 h. After centrifugation at 12,000× g for 10 min, samples were analyzed by HPLC. Control experiments were also carried out to determine the stability of flavonoids in DMSO under analogous conditions.

[8] = Stability of flavonoids before administration to the cell cultures (diluted in RPMI 1640/Opti-MEM medium), HPLC; format: physicochemical; settings: 100 µg/mL, medium with 2 mM L-glutamine, 5% fetal bovine serum, penicillin, streptomycin; 3 h incubation
Experimental: Tested compounds were dissolved in DMSO and then diluted in a 1:1 (v/v) mixture of RPMI 1640 (HIIET, PAS, Wroclaw, Poland) and Opti-MEM (Gibco, Scotland, UK) medium supplemented with 2 mM L-glutamine (Sigma-Aldrich, Poznan, Poland), 5% fetal bovine serum (GE Healthcare), 100 units/mL penicillin (Polfa Tarchomin S.A., Warsaw, Poland), and 100 µg/mL streptomycin (Sigma-Aldrich, Poznan, Poland). The antiproliferative effects of the flavonoids were examined after 72 h of exposure of the cultured cells to varying concentrations of the tested agents (from 0.1 to 100 μg/mL) using the MTT (for MV-4-11 cells) or SRB assay described below. Cisplatin (chemotherapy drug used to treat a number of cancers) was used as a positive control. The results are presented as an inhibitory concentration 50 (IC50), which is the concentration of the tested agent that inhibits proliferation of the cell population by 50%. IC50 values for each experiment were calculated separately.
as §4

Compound	IC50 [4] [µM]	IC50 (LoVo (colon cancer)) [µM]	IC50 (LoVo (colon cancer); Homo sapiens, LoVo, 72 h) [µM]	IC50 (MCF7 (breast carcinoma)) [µM]	IC50 [6] [µM]	IC50 (DU 145 (prostate cancer)) [µM]	compound observed after incubation in DMSO [7]	stability after dilution with 1:1 RPMI 1640/Opti-MEM medium [8]	TEAC ABTS [1]	TEAC DPPH [2]	TEAC FRAP [3]	IC50 [5] [µM]	IC50 (MCF 10A (breast cells)) [µM]
O=c1cc(-c2ccc(O)c(O)c2)oc2cc(O)cc(O)c12 [Compound 3, luteolin]	8.73 ± 2.23	13.5 ± 0.65	14 to 15	25.5 ± 6.33	13.7 ± 1.65	21.9 ± 6.11			16.645 ± 0.897 µmol trolox per µmol of tested	10.50 ± 0.117 µmol trolox per µmol of tested	17.686 ± 0.327 µmol trolox per µmol of tested	9.22 ± 0.64	33.1 ± 10.3
O=C1C[C@@H](c2ccc(O)cc2)Oc2cc(O)c(O)c(O)c21 [Compound 15, 6-hydroxynaringenin]							over 99%	complete decomposition					
O=C1C[C@@H](c2ccc(O)cc2)Oc2c(O)c(O)cc(O)c21 [Compound 14, 8-hydroxynaringenin]							over 99%	complete decomposition					

Second part, led by results:

IC50 [4] [µM]	IC50 (LoVo (colon cancer)) [µM]	IC50 (LoVo (colon cancer); Homo sapiens, LoVo, 72 h) [µM]	IC50 (MCF7 (breast carcinoma)) [µM]	IC50 [6] [µM]	IC50 (DU 145 (prostate cancer)) [µM]	compound observed after incubation in DMSO [7]	stability after dilution with 1:1 RPMI 1640/Opti-MEM medium [8]	Compound	TEAC ABTS [1]	TEAC DPPH [2]	TEAC FRAP [3]	IC50 [5] [µM]	IC50 (MCF 10A (breast cells)) [µM]
140 ± 12.9		104 ± 5.55	167 ± 13.1	77.2 ± 19.4	215 ± 32.1			COc1ccc([C@@H]2CC(=O)c3c(O)cc(O)cc3O2)cc1O [Compound 8, hesperetin]	13.254 ± 0.123 µmol trolox per µmol of tested	0.098 ± 0.002 µmol trolox per µmol of tested	4.025 ± 0.175 µmol trolox per µmol of tested	98.3 ± 7.62	207 ± 23.4
99.1 ± 34.1		116 ± 10.6	148 ± 6.57	67 ± 15.8	119 ± 22.4			O=C1C[C@@H](c2ccccc2)Oc2cc(O)cc(O)c21 [Compound 5, Pinocembrin]	0.165 ± 0.009 µmol trolox per µmol of tested	0.005 ± 0.001 µmol trolox per µmol of tested		96.6 ± 7.23	125 ± 5.77
